According to ChEMBL document CHEMBL1153284, “N-(3-fluoro-4-(2-arylthieno[3,2-b]pyridin-7-yloxy)phenyl)-2-oxo-3-phenylimidazolidine-1-carboxamides: a novel series of dual c-Met/VEGFR2 receptor tyrosine kinase inhibitors” (Bioorg Med Chem Lett, 2009):
pIC50: −log10 of the molar value. Active and inactive are the calls of the source. No cut-off for these calls is given here.

Experiments:
[1] = target: Vascular endothelial growth factor receptor 2 (Homo sapiens, UniProt P35968); assay: Inhibition of GST-fused recombinant VGFR2 catalytic domain expressed in baculovirus-infected Sf9 cells after 10 mins by DELFIA assay
[2] = target: T1, Hepatocyte growth factor receptor (Homo sapiens, UniProt P08581); conditions: 293t
Description: Inhibition of TPR-fused Met phosphorylation expressed in human 293T cells by ELISA

[3] = target: T1, Hepatocyte growth factor receptor; assay: biochemical
Description: Inhibition of GST-fused recombinant c-Met catalytic domain expressed in baculovirus-infected Trichoplusia ni Hi5 cells after 30 mins by DELFIA assay

[4] = Half life in rat at 2.17 to 2.86 mg/kg, iv; assay type: ADME, organism-based; design: dose 2.17-2.86 mg/kg, route intravenous; conditions: in vivo
[5] = target: Macrophage-stimulating protein receptor (Homo sapiens) (UniProt Q04912); assay: Inhibition of Ron at 100 nM
[6] = target: Angiopoietin-1 receptor (Homo sapiens) (UniProt Q02763); assay: Inhibition of Tie2 at 100 nM
[7] = target: Receptor-type tyrosine-protein kinase FLT3 (Homo sapiens) (UniProt P36888); assay: Inhibition of FLT3 at 100 nM
[8] = target: T2, Aurora kinase A (Homo sapiens) (UniProt O14965); assay: Inhibition of Aurora A at 100 nM
T2 sequence (whole entry): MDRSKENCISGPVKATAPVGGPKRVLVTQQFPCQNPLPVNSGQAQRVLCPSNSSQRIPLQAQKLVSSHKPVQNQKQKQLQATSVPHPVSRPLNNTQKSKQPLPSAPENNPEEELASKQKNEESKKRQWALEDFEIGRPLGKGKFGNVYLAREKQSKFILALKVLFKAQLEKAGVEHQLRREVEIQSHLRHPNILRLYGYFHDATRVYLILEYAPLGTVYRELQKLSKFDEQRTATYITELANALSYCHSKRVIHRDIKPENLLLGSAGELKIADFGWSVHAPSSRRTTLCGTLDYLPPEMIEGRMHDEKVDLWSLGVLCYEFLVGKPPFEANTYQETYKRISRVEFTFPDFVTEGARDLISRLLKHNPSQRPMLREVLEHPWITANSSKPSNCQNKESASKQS

MKN-45 [9] = assay: Antitumor activity against human MKN45 cells xenografted in mouse assessed as regression of tumor growth at 40 mg/kg, po administered once daily for 12 days; assay type: functional, organism-based; design: dose 40 mg/kg
[10] = target: Vascular endothelial growth factor receptor 3 (Homo sapiens) (UniProt P35916); assay: Inhibition of VEGFR3 at 100 nM
HUVEC [11] = assay: Inhibition of tubule growth in HUVEC by angiogenesis assay; assay type: functional, cell-based; conditions: Homo sapiens
[12] = Bioavailability in rat at 4.28 to 4.98 mg/kg, po; assay type: ADME, organism-based; conditions: in vivo
HUVEC [13] = assay: Inhibition of VEGF-dependent proliferation in HUVEC; assay type: functional, cell-based; conditions: Homo sapiens
[14] = Inhibition of VEGF-dependent ERK phosphorylation
HUVEC [15] = assay: Inhibition of tubule formation in HUVEC assessed as tubule length at 100 nM by angiogenesis assay in presence of VEGF; assay type: functional; conditions: Homo sapiens
MKN-45 [16] = assay: Antiproliferative activity against human MKN45 cells expressing c-Met after 72 hrs by MTT assay; assay type: functional, cell-based; conditions: MKN-45, 72 h
HOS-TE85 = assay: Antiproliferative activity against human MNNG-HOS cells expressing TPR-fused Met after 72 hrs by MTT assay; assay type: functional, cell-based; conditions: HOS-TE85, 72 h
HCT-116 = assay: Antiproliferative activity against c-Met-independent human HCT116 cells after 72 hrs by MTT assay; assay type: functional, cell-based; conditions: HCT-116, 72 h
MDA-MB-231 = assay: Antiproliferative activity against c-Met-independent human MDA-MB-231 cells after 72 hrs by MTT assay; assay type: functional, cell-based; conditions: MDA-MB-231, 72 h
[17] = target: Vascular endothelial growth factor receptor 1 (Homo sapiens) (UniProt P17948); assay: Inhibition of VEGFR1 at 100 nM

Row | pIC50 [1] | pIC50 [2] | pIC50 [3] | Compound | further results
1 | 8.00 | 6.80 | 7.37 | CN(C(=O)CC(=O)Nc1ccc(Oc2ccnc3cc(-c4cn(C)cn4)sc23)c(F)c1)c1ccccc1 | –
2 | 7.80 | 6.68 | 7.41 | CC(C)n1cnc(-c2cc3nccc(Oc4ccc(NC(=O)C5CCN(c6ccccc6)C5=O)cc4F)c3s2)c1 (stereo not drawn) | –
3 | 8.10 | 6.52 | 7.68 | O=C(Nc1ccc(Oc2ccnc3cc(-c4cn(CCCN5CCCC5)cn4)sc23)c(F)c1)N1CCN(c2ccccc2)C1=O | –
4 | 7.82 | 6.51 | 7.55 | Cn1cnc(-c2cc3nccc(Oc4ccc(NC(=O)CC(=O)Nc5ccccc5)cc4F)c3s2)c1 | –
5 | 8.52 | 6.08 | 7.55 | CN1CCN(CCN(C)Cc2ccc(-c3cc4nccc(Oc5ccc(NC(=O)N6CCN(c7ccccc7)C6=O)cc5F)c4s3)cc2)CC1 | –
6 | 7.92 | 6.60 | 7.54 | CN1CCN(Cc2ccc(-c3cc4nccc(Oc5ccc(NC(=O)N6CCN(c7ccccc7)C6=O)cc5F)c4s3)cc2)CC1 | –
7 | 7.59 | – | – | Cn1cnc(-c2cc3nccc(Oc4ccc(NC(=S)NC(=O)Cc5ccccc5)cc4F)c3s2)c1 | half-life [4]: 1.2 h
8 | 7.85 | 7.22 | 7.47 | CN(C)CCn1cnc(-c2cc3nccc(Oc4ccc(NC(=O)N5CCN(c6ccccc6)C5=O)cc4F)c3s2)c1 | –
9 | 6.06 | 6.57 | 6.70 | CC(=O)c1cccc(-c2cc3nccc(Oc4ccc(NC(=O)N5CCN(c6ccccc6)C5=O)cc4F)c3s2)c1 | –
10 | 8.15 | 7.30 | 7.57 | CCn1cnc(-c2cc3nccc(Oc4ccc(NC(=O)N5CCN(c6ccc(F)cc6)C5=O)cc4F)c3s2)c1 | inhibition [5]: 100%; inhibition [6]: 99%; inhibition [7]: 80%; inhibition [8]: 9%; Activity (MKN-45 [9]): Active; inhibition [10]: 99%; pIC50 (HUVEC [11]): 8.22; bioavailability [12]: 37%; half-life [4]: 6.3 h; pIC50 (HUVEC [13]): 8.22; pIC50 [14]: 9.00; inhibition at 0.1 µM (HUVEC [15]): 98%; pIC50 (MKN-45 [16]): 8.00; pIC50 (HOS-TE85): 7.48; pIC50 (HCT-116): 4.89; pIC50 (MDA-MB-231): 4.70; inhibition [17]: 99%
11 | 7.92 | 7.10 | 7.62 | Cn1cnc(-c2cc3nccc(Oc4ccc(NC(=S)N5CCN(c6ccccc6)C5=O)cc4F)c3s2)c1 | –
12 | 7.92 | 7.40 | 7.60 | CCn1cnc(-c2cc3nccc(Oc4ccc(NC(=O)N5CCN(c6ccccc6)C5=O)cc4F)c3s2)c1 | –
13 | 7.64 | 6.64 | 7.38 | CN(C)[C@H]1CCN(C(=O)c2cc3nccc(Oc4ccc(NC(=O)N5CCN(c6ccccc6)C5=O)cc4F)c3s2)C1 | –
14 | 8.05 | 7.22 | 7.55 | Cn1cnc(-c2cc3nccc(Oc4ccc(NC(=O)C5(C(=O)Nc6ccccc6)CC5)cc4F)c3s2)c1 | –
15 | 8.52 | 7.00 | 7.68 | CCn1cnc(-c2cc3nccc(Oc4ccc(NC(=O)N5CCN(c6ccccc6F)C5=O)cc4F)c3s2)c1 | –
16 | 6.10 | – | 6.52 | CC(C)n1cnc(-c2cc3nccc(Oc4ccc(NC(=O)C5CC(=O)N(c6ccccc6)C5)cc4F)c3s2)c1 (stereo not drawn) | –
17 | 7.59 | 6.85 | 7.62 | CCn1ccnc1-c1cc2nccc(Oc3ccc(NC(=O)N4CCN(c5ccccc5)C4=O)cc3F)c2s1 | –
18 | 7.70 | 6.49 | 7.46 | O=C(Nc1ccc(Oc2ccnc3cc(-c4cn(CCN5CCCC5)cn4)sc23)c(F)c1)N1CCN(c2ccccc2)C1=O | –
19 | 7.85 | 7.22 | 7.59 | CCn1cnc(-c2cc3nccc(Oc4ccc(NC(=O)N5CCN(c6ccccc6OC)C5=O)cc4F)c3s2)c1 | –
20 | 6.77 | 6.52 | 7.48 | CN1CC=C(c2cc3nccc(Oc4ccc(NC(=O)N5CCN(c6ccccc6)C5=O)cc4F)c3s2)CC1 | –
21 | 5.74 | < 5.00 | 5.70 | Cn1cnc(-c2cc3nccc(Oc4ccc(NC(=O)N5CCN(c6ccccc6)C5=S)cc4F)c3s2)c1 | –
22 | 7.51 | 6.92 | 7.59 | Cn1ccnc1-c1cc2nccc(Oc3ccc(NC(=O)N4CCN(c5ccccc5)C4=O)cc3F)c2s1 | –
23 | 7.43 | – | 7.60 | Cn1cnc(-c2cc3nccc(Oc4ccc(NC(=O)NC(=O)Cc5ccccc5)cc4F)c3s2)c1 | –
24 | 8.10 | 7.10 | 7.80 | CNC(=O)N1CCN(Cc2ccc(-c3cc4nccc(Oc5ccc(NC(=O)N6CCN(c7ccccc7)C6=O)cc5F)c4s3)cc2)CC1 | –
25 | 8.10 | – | – | Cn1cnc(-c2cc3nccc(Oc4ccc(NC(=O)N5CCN(c6ccccc6)C5=O)cc4F)c3s2)c1 | bioavailability [12]: 13%; half-life [4]: 2.3 h
26 | 6.64 | 6.00 | 7.17 | Cn1cnc(-c2cc3nccc(Oc4ccc(NC(=O)C5(C)CCN(c6ccccc6)C5=O)cc4F)c3s2)c1 (stereo not drawn) | –
27 | 7.24 | 5.84 | 6.00 | CN(C(=O)C1(C(=O)Nc2ccc(Oc3ccnc4cc(-c5cn(C)cn5)sc34)c(F)c2)CC1)c1ccccc1 | –
28 | 7.41 | 6.43 | 7.46 | Cn1cnc(-c2cc3nccc(Oc4ccc(NC(=O)C5CCN(c6ccccc6)C5=O)cc4F)c3s2)c1 (stereo not drawn) | bioavailability [12]: 14%; half-life [4]: 1.1 h
29 | 7.96 | 6.38 | 7.66 | O=C(Nc1ccc(Oc2ccnc3cc(-c4ccc(CN5CCNCC5)cc4)sc23)c(F)c1)N1CCN(c2ccccc2)C1=O | –
